pIC50: −log10 of the molar value.

The target in one data set is T1, Na^+ /H^+ exchanger (Oryctolagus cuniculus, UniProt P23791).
T1 construct: endogenous in cells; host or cells: rabbit erythrocytes (whole blood of cholesterol-fed White New Zealand rabbits)
As to the kind of experiment: Inhibition of the Na+/H+ exchanger of rabbit erythrocytes (amiloride-sensitive sodium influx, flame photometry). In kind it is cell-based, rabbit (White New Zealand). The conditions noted are these: 37° C., pH 7.4, hyperosmolar salt-sucrose medium. The text has this: White New Zealand rabbits (Ivanovas) received a standard diet containing 2% cholesterol for six weeks, in order to activate Na^+ /H^+ exchange and thus to enable the Na^+ influx into the erythrocytes via […] exchange to be determined by flame photometry. The blood was taken from the auricular arteries and made incoagulable by means of 25 IU of potassium heparin. A portion of each sample was used for duplicate determination of the hematocrit by centrifugation. Aliquots of in each case 100 μl were used to measure the initial Na^+ content of the erythrocytes.
In order to determine the amiloride-sensitive sodium influx, 100 μl of each blood sample were incubated at 37° C. and at pH 7.4 in each case in 5 ml of a hyperosmolar salt-sucrose medium (in mmol/l: 140 NaCl, 3 KCl, 150 sucrose, 0.1 ouabain, 20 trishydroxymethylaminomethane). The erythrocytes were then washed three times with ice-cold MgCl2 -ouabain solution (in mmol/l: 112 MgCl2, 0.1 ouabain) and hemolyzed in 2.0 ml of distilled water. The intracellular sodium content was determined by flame photometry.
The net Na^+ influx was calculated from the difference between the initial sodium values and the sodium content of the erythrocytes after incubation. The amiloride-inhibitable sodium influx was given by the difference of the sodium content of the erythrocytes after incubation with and without 3×10^-4 mol/l of amiloride. […]

A further data set concerns cardiac arrhythmias. Conditions: cited from earlier work.
The subject of a further data set is rat hearts. The conditions noted are these: isolated rat hearts, cited from earlier work.

T1 sequence (P23791 whole entry): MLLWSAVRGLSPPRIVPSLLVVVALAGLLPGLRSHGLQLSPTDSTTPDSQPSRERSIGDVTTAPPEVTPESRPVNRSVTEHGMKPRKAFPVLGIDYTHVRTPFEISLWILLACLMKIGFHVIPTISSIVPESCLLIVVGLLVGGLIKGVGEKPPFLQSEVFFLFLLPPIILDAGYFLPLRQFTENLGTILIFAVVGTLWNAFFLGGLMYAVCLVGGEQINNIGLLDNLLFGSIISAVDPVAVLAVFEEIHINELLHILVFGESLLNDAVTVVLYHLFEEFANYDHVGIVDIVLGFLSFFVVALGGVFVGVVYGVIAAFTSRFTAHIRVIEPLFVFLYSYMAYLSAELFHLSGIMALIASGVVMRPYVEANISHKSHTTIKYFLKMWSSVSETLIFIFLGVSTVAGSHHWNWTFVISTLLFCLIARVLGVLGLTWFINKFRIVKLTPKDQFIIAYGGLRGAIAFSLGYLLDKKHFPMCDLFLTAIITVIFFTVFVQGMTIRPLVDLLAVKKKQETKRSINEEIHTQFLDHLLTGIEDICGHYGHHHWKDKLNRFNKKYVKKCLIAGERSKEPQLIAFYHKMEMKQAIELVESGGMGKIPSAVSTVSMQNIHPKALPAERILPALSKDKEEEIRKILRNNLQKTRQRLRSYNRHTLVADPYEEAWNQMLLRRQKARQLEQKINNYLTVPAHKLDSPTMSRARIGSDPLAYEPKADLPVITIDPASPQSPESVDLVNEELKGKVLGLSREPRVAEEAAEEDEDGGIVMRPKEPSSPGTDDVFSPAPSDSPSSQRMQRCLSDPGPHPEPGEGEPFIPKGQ

Take `NC(N)=NC(=O)c1ccc(Oc2ccc(F)cc2)c(S(=O)(=O)C(F)(F)F)c1` [Example 1, 4-(4-Fluorophenoxy)-3-trifluoromethylsulfonylbenzoylguanidine]: on Na^+ /H^+ exchanger, the negative-log IC50 (pIC50) is 6.70.
Still for that read-out and setting: under `CC(C)c1ccc(C(=O)N=C(N)N)cc1S(=O)(=O)C(F)(F)F` [Example 2, 4-Isopropyl-3-trifluoromethylsulfonylbenzoylguanidine] stands 7.15.
Take `NC(N)=NC(=O)c1nc(Cl)c(N)nc1N` [amiloride]: in the data set on cardiac arrhythmias (Circulation 79, 1257-63 (1989)), the antiarrhythmic effect result is given as “only weakly pronounced”. In the data set with cardiac arrhythmias (in vivo), the “side-effects accompanying antiarrhythmic effect” value was “hypotensive and saluretic effects”. Besides, the “suppression of artificially induced ventricular fibrillation” value in the data set on rat hearts (Eur. Heart J. 9 (suppl.1): 167 (1988)) was “completely suppressed”.
Regarding `CCN(c1nc(N)c(C(=O)N=C(N)N)nc1Cl)C(C)C` [ethylisopropylamiloride], in the data set on rat hearts (compared with amiloride), the “potency relative to amiloride in ventricular fibrillation model” value was “even more potent than amiloride”.

The values are drawn from US5571842A, “Perfluoroalkyl-substituted, benzoylguanidines, a process for their preparation, their use as a medicament or diagnostic agent, and a medicament containing them” (priority 1994, dated 1996).
